Test results: patent US11040035B2, “3-oxo-2,6-diphenyl-2,3-dihydropyridazine-4-carboxamides” (BAYER PHARMA AKTIENGESELLSCHAFT, priority 2016, dated 2021)
Read-outs that look alike come from different tables or passages of the source.

Experiments:
AHR [1] = target: T1, AHR (Homo sapiens, UniProt P35869); assay: In vitro assay 2: agonism in human cell line (transactivation assay)
T1 sequence (P35869 11-848): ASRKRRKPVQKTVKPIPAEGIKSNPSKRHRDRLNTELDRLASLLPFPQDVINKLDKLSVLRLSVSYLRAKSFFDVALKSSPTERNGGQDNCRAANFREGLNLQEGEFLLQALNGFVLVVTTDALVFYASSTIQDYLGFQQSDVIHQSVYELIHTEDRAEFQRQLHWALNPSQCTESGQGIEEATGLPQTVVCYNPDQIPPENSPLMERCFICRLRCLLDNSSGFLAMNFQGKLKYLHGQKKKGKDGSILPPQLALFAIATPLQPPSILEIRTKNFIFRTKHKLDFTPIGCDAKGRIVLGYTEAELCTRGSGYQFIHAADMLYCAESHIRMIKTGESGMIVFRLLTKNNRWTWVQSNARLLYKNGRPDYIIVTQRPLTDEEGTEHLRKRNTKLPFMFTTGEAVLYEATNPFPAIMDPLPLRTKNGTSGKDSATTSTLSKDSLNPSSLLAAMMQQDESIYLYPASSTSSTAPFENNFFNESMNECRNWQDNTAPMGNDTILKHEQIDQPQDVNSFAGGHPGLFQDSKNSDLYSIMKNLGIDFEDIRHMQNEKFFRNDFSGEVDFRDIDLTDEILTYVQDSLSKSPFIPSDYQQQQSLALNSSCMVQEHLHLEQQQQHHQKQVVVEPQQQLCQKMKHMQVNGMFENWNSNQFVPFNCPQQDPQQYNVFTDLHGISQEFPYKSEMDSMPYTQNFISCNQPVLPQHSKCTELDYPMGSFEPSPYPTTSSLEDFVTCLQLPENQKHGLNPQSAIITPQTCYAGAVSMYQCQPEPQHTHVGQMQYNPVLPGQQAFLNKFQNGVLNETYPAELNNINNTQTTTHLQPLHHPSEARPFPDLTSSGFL

[2] = tested on: AHR-regulated gene CYP1A1; assay: In vitro assay 3: AHR-regulated CYP1A1 expression in human cell line (U937, qPCR)
Procedure: In Vitro Assay 3: AHR-Regulated CYP1A1 Expression in Human Cell Line
To assess the AHR inhibitory activity of the substances described in this application, the ability thereof to antagonise ligand-induced AHR gene regulation in a dose-dependent manner was quantified. For this purpose, quantitative PCR analysis was used to determine expression of the AHR-regulated gene CYP1A1 in a human monocytic U937 cell line upon stimulation with 200 μM KA in the presence and absence of AHR inhibitor. U937 cells were sown at a concentration of 2×10^5 cells/well in 100 ul of growth medium (RPMI 1640, 20% FCS) in 96-well microtitre plates. CYP1A1 expression was induced with 200 μM KA (positive control) in the presence or absence of the substances for 6 hours. Human U937 cells were typically incubated with eight different concentrations of the substances (1 nM, 3 nM, 10 nM, 30 nM, 100 nM, 300 nM, 1 μM and 3 μM) and analyzed in duplicate on the same microtitre plate. After stimulation, cells were lysed with Nucleic Acid Lysis Solution (#4305895, Applied Biosystems) and RNA was isolated using the 6100 Nucleic Acid Preparation Station (Applied Biosystems) and reverse-transcribed to cDNA using SuperScript VILO cDNA synthesis kit (#11754-250, Invitrogen). Unstimulated cells were used as the negative control. Taqman probes for human CYP1A1 (Hs01054797_g1) and human HPRT (Hs02800695_m1) were used to analyze fold expression of CYP1A1 of HPRT. Quantitation was performed on a Taqman SDS7900HT.

AHR [3] = target: T1, AHR; assay: In vitro assay 1: antagonism in human cell line (transactivation assay, kynurenic acid prestimulated); settings: Assay 1: AHR-luc Hum Antagonism IC50 [M], 150 μM kynurenic acid, 20 hours, firefly luciferase
[4] = Assay 2: AHR-luc Hum Agonism IC50 [M], no kynurenic acid, 20 hours, firefly luciferase
[5] = Homo sapiens, U-937, 6 h, read-out: Assay 3: Hum CYP1A1 Antagonism IC50 [M], U937 cells, 200 μM KA, 6 hours, qPCR
[6] = read-out: Assay 2: AHR-luc Hum Agonism IC50, no kynurenic acid, 20 hours, firefly luciferase

| IC50 (AHR [1]; [4]) [M] | IC50 [2, 5] [M] | IC50 (AHR [3]) [M] | IC50 (AHR [1]; [6]) [M] | IC50 ([2]; read-out: Assay 3: Hum CYP1A1 Antagonism IC50, U937 cells, 200 μM KA, 6 hours, qPCR) [M] | Compound |
| --- | --- | --- | --- | --- | --- |
| > 2e-05 | 6.9e-09 | 9.6e-09 | – | – | CC(C)(O)[C@@H](NC(=O)c1cc(-c2ccc(OC(F)(F)F)cc2)nn(-c2cccc(F)c2)c1=O)C1CC1 [Example 379, N-[(1S)-1-cyclopropyl-2-hydroxy-2-methylpropyl]-2-(3-fluorophenyl)-3-oxo-6-[4-(trifluoromethoxy)phenyl]-2,3-dihydropyridazine-4-carboxamide] |
| > 2e-05 | 9.5e-08 | 2.8e-08 | – | – | CC(C)(O)C(NC(=O)c1cc(-c2ccc(C(F)(F)F)cc2)nn(-c2cccc(F)c2)c1=O)C(F)(F)F (single isomer, unassigned; (-)) [Example 394, (−)-2-(3-fluorophenyl)-3-oxo-N-(1,1,1-trifluoro-3-hydroxy-3-methylbutan-2-yl)-6-[4-(trifluoromethyl)phenyl]-2,3-dihydropyridazine-4-carboxamide] |
| > 2e-05 | 2.15e-07 | 6.04e-08 | – | – | O=C(NC[C@@H](O)CO)c1cc(-c2ccc(C(F)(F)F)cc2)nn(-c2cccc(F)c2)c1=O [Example 265, (+)-N-[(2R)-2,3-Dihydroxypropyl]-2-(3-fluorophenyl)-3-oxo-6-[4-(trifluoromethyl)phenyl]-2,3-dihydropyridazine-4-carboxamide] |
| – | – | 3.19e-07 | > 2e-05 | 6e-07 | O=C(NC(CO)C1CCOC1)c1cc(-c2ccc(OC(F)(F)F)cc2)nn(-c2cccc(F)c2)c1=O (single isomer, unassigned) [Example 177, 2-(3-Fluorophenyl)-N-[2-hydroxy-1-(tetrahydrofuran-3-yl)ethyl]-3-oxo-6-[4-(trifluoromethoxy)phenyl]-2,3-dihydropyridazine-4-carboxamide] |
| > 2e-05 | 5.86e-08 | 3.75e-08 | – | – | O=C(NCC(O)C(F)(F)F)c1cc(-c2ccc(Cl)cc2)nn(-c2cccc(F)c2)c1=O (stereo not drawn) [Example 25, 6-(4-Chlorophenyl)-2-(3-fluorophenyl)-3-oxo-N-(3,3,3-trifluoro-2-hydroxypropyl)-2,3-dihydropyridazine-4-carboxamide] |
| > 2e-05 | 2.16e-08 | 6.92e-09 | – | – | CC(C)[C@@H](CO)NC(=O)c1cc(-c2ccc(OC(F)(F)F)cc2)nn(-c2cccc(F)c2)c1=O [Example 168, 2-(3-Fluorophenyl)-N-[(2S)-1-hydroxy-3-methylbutan-2-yl]-3-oxo-6-[4-(trifluoromethoxy)phenyl]-2,3-dihydropyridazine-4-carboxamide] |
| > 2e-05 | 5.44e-08 | 3.72e-08 | – | – | CC(CO)CNC(=O)c1cc(-c2ccc(C(F)(F)F)cc2)nn(-c2cccc(F)c2)c1=O (racemic) [Example 245, 2-(3-Fluorophenyl)-N-[(2RS)-3-hydroxy-2-methylpropyl]-3-oxo-6-[4-(trifluoromethyl)phenyl]-2,3-dihydropyridazine-4-carboxamide] |
| > 2e-05 | 6.06e-08 | 3.54e-08 | – | – | O=C(NC(CO)C1CCCO1)c1cc(-c2ccc(C(F)(F)F)cc2)nn(-c2cccc(F)c2)c1=O (racemic) [Example 263, 3,6-Anhydro-2,4,5-trideoxy-2-[({2-(3-fluorophenyl)-3-oxo-6-[4-(trifluoromethyl)phenyl]-2,3-dihydropyridazin-4-yl}carbonyl)amino]-DL-erythro-hexitol and 1,4-anhydro-2,3,5-trideoxy-5-[({2-(3-fluorophenyl)-3-oxo-6-[4-(trifluoromethyl)phenyl]-2,3-dihydropyridazin-4-yl}carbonyl)amino]-DL-threo-hexitol] |
| > 2e-05 | 8.06e-08 | 3.9e-08 | – | – | C[C@H](O)[C@H](C)NC(=O)c1cc(-c2ccc(OC(F)(F)F)cc2)nn(-c2cccc(F)c2)c1=O [Example 185, 2-(3-Fluorophenyl)-N-[(2S,3S)-3-hydroxybutan-2-yl]-3-oxo-6-[4-(trifluoromethoxy)phenyl]-2,3-dihydropyridazine-4-carboxamide] |
| > 2e-05 | 7.24e-08 | 4.69e-08 | – | – | O=C(NC(CO)CO)c1cc(-c2ccc(C(F)(F)F)cc2)nn(-c2cccc(F)c2)c1=O [Example 250, N-(1,3-Dihydroxypropan-2-yl)-2-(3-fluorophenyl)-3-oxo-6-[4-(trifluoromethyl)phenyl]-2,3-dihydropyridazine-4-carboxamide] |

More lines, now with the values behind:

| Compound | IC50 (AHR [1]; [4]) [M] | IC50 [2, 5] [M] | IC50 (AHR [3]) [M] | IC50 (AHR [1]; [6]) [M] | IC50 ([2]; read-out: Assay 3: Hum CYP1A1 Antagonism IC50, U937 cells, 200 μM KA, 6 hours, qPCR) [M] |
| --- | --- | --- | --- | --- | --- |
| O=C(N[C@H]1COC[C@H]1O)c1cc(-c2ccc(Cl)cc2)nn(-c2cccc(F)c2)c1=O [Example 166, 6-(4-Chlorophenyl)-2-(3-fluorophenyl)-N-[(3S,4S)-4-hydroxytetrahydrofuran-3-yl]-3-oxo-2,3-dihydropyridazine-4-carboxamide] | > 2e-05 | 4.47e-08 | 4.05e-08 | – | – |
| O=C(N[C@H]1CCC[C@@H]1O)c1cc(-c2ccc(Cl)cc2)nn(-c2cccc(F)c2)c1=O (single isomer, unassigned) [Example 124, 6-(4-Chlorophenyl)-2-(3-fluorophenyl)-N-(trans-2-hydroxycyclopentyl)-3-oxo-2,3-dihydropyridazine-4-carboxamide] | > 2e-05 | 3.59e-08 | 3.65e-08 | – | – |
| COc1ccc(-c2cc(C(=O)N[C@@H](C)[C@H](C)O)c(=O)n(-c3cccc(F)c3)n2)cc1 (relative stereo) [Example 116, rel-2-(3-Fluorophenyl)-N-[(2S,3S)-3-hydroxybutan-2-yl]-6-(4-methoxyphenyl)-3-oxo-2,3-dihydropyridazine-4-carboxamide] | > 2e-05 | 9.69e-08 | 2.9e-08 | – | – |
| O=C(N[C@@H]1CCCC(F)(F)[C@H]1O)c1cc(-c2ccc(Cl)cc2)nn(-c2cccc(F)c2)c1=O (single isomer, unassigned) [Example 275, 6-(4-Chlorophenyl)-N-[(trans)-3,3-difluoro-2-hydroxycyclohexyl]-2-(3-fluorophenyl)-3-oxo-2,3-dihydropyridazine-4-carboxamide] | > 2e-05 | 3.39e-08 | 1.81e-08 | – | – |
| CC(O)C(C)NC(=O)c1cc(-c2ccc(OC(F)(F)F)cc2)nn(-c2cccc(F)c2)c1=O (single isomer, unassigned) [Example 181, 2-(3-Fluorophenyl)-N-(3-hydroxybutan-2-yl)-3-oxo-6-[4-(trifluoromethoxy)phenyl]-2,3-dihydropyridazine-4-carboxamide] | – | 2.12e-07 | 8.02e-08 | > 2e-05 | – |
| O=C(N[C@H]1CC[C@@H]1O)c1cc(-c2ccc(Cl)cc2)nn(-c2cccc(F)c2)c1=O (racemic) [Example 348, 6-(4-chlorophenyl)-2-(3-fluorophenyl)-N-(trans-2-hydroxycyclobutyl)-3-oxo-2,3-dihydropyridazine-4-carboxamide] | > 2e-05 | 1.37e-07 | 5.11e-08 | – | – |
| O=C(N[C@H](CO)Cc1ccccc1)c1cc(-c2ccc(Cl)cc2)nn(-c2cccc(F)c2)c1=O [Example 220, (−)-6-(4-Chlorophenyl)-2-(3-fluorophenyl)-N-[(2S)-1-hydroxy-3-phenylpropan-2-yl]-3-oxo-2,3-dihydropyridazine-4-carboxamide] | > 2e-05 | 6e-07 | 1.03e-07 | – | – |
| O=C(N[C@H]1CCC[C@@H]1O)c1cc(-c2ccc(Cl)cc2)nn(-c2cccc(F)c2)c1=O [Example 115, 6-(4-Chlorophenyl)-2-(3-fluorophenyl)-N-[(1S,2S)-2-hydroxycyclopentyl]-3-oxo-2,3-dihydropyridazine-4-carboxamide] | > 2e-05 | 1.31e-08 | 2.72e-08 | – | – |
| O=C(N[C@@H]1CCCC[C@H]1O)c1cc(-c2ccc(Cl)cc2)nn(-c2cccc(F)c2)c1=O [Example 164, 6-(4-Chlorophenyl)-2-(3-fluorophenyl)-N-[(1R,2R)-2-hydroxycyclohexyl]-3-oxo-2,3-dihydropyridazine-4-carboxamide] | > 2e-05 | 2e-06 | 5.96e-07 | – | – |
| CN(C)c1ccc(-c2cc(C(=O)NC(CO)C(F)(F)F)c(=O)n(-c3cccc(F)c3)n2)cc1Cl (stereo not drawn) [Example 376, 6-[3-chloro-4-(dimethylamino)phenyl]-2-(3-fluorophenyl)-3-oxo-N-(1,1,1-trifluoro-3-hydroxypropan-2-yl)-2,3-dihydropyridazine-4-carboxamide] | > 2e-05 | 1.12e-07 | 3.97e-08 | – | – |
